Tests used:
[1] = biological target: T1, human H4 receptor (Homo sapiens, UniProt Q9H3N8); assay: [3H]Histamine binding on membranes of CHO cells stably expressing human H4 receptor
T1 construct: expressed in transfected cells
How it was run: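 Nonspecific binding defined with 10 μM JNJ 7777120. Bound radioactivity collected on polyethyleneimine-treated GF/B filters and counted by liquid scintillation.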

Ki or IC50 activity class [1] [µM] | melting point [°C] | SMILES
< 1 | 106.5 | CN1CCC(OC(c2nc3ccccc3s2)c2cccc3ccccc23)CC1 (centres unmarked) [Example 17, 2-[(1-methylpiperidin-4-yloxy)naphthalen-1-ylmethyl]benzothiazole]
< 0.3 | 152 | CN1CCC(OC(c2nc3ccccc3[nH]2)c2cc3c(cc2O)CCC3)CC1 (centres unmarked) [Example 602]
< 0.3 | 110 | CN1CCC(OC(c2ccccc2)c2nc3ccccc3[nH]2)CC1 (centres unmarked) [Example 30, 2-[(1-methylpiperidin-4-yloxy)phenylmethyl]-1H-benzimidazole]
< 0.3 | 96.7 | CN1CCC(OC(c2ccccc2)c2nc3cccc(N)c3[nH]2)CC1 (centres unmarked) [Example 200, 2-[(1-methylpiperidin-4-yloxy)phenyl-methyl]-3H-benzimidazol-4-ylamine]
< 0.03 | 148 | Cc1ccc(C(OC2CCN(C)CC2)c2nc3ccccc3[nH]2)c(O)c1F (centres unmarked) [Example 601, 6-[(1H-benzimidazol-2-yl)(1-methylpiperidin-4-yloxy)methyl]-2-fluoro-3-methylphenol]
< 0.3 | 95 | CCOC(=O)NCCCC#Cc1ccc(F)c(C(OC2CCN(C)CC2)c2nc3cc(F)ccc3[nH]2)c1 (centres unmarked) [Example 570]
< 0.03 | 60 | CCCNC(=O)c1cccc(C(OC2CCN(C)CC2)c2nc3ccccc3s2)c1 (centres unmarked) [Example 220, 3-[benzothiazol-2-yl(1-methylpiperidin-4-yloxy)methyl]-N-propylbenzamide]
< 0.3 | 110 | COc1ccc(-c2cccc(C(NC3CCN(C)CC3)c3nc4ccccc4[nH]3)c2)cc1 (centres unmarked) [Example 222, [(1H-benzimidazol-2-yl)(4′-methoxy-biphenyl-3-yl)methyl](1-methylpiperidin-4-yl)amine]
< 0.03 | 90 | CN1CCC(OC(c2cccc(-c3ccc(OC(F)(F)F)cc3)c2)c2nc3ccccc3[nH]2)CC1 (centres unmarked) [Example 182, 2-[(1-methylpiperidin-4-yloxy)(4′-trifluoromethoxybiphenyl-3-yl)methyl]-1H-benzimidazole]
< 0.03 | 211 | Cc1cc(F)c(C(OC2CCN(C)CC2)c2nc3ccccc3[nH]2)c(F)c1 (centres unmarked) [Example 523, 2-[(2,6-difluoro-4-methylphenyl)(1-methylpiperidin-4-yloxy)methyl]-1H-benzimidazole]
< 0.03 | 170 | CN1CCC(OC(c2cccc(SCCNC(=N)N)c2)c2nc3cc(F)ccc3[nH]2)CC1 (centres unmarked) [Example 437, N-(2-{3-[(5-fluoro-1H-benzimidazol-2-yl)(1-methylpiperidin-4-yloxy)methyl]phenylsulfanyl}ethyl)guanidine]
< 0.03 | 99 | CN1CCC(OC(c2cccc(Br)c2)c2nc3ccccc3s2)CC1 (centres unmarked) [Example 27, 2-[(3-bromo-phenyl)(1-methylpiperidin-4-yloxy)methyl]benzothiazole]
< 0.3 | 95 | CN1CCC(OC(c2cccc(-c3ccc4c(c3)OCO4)c2)c2nc3ccccc3[nH]2)CC1 (centres unmarked) [Example 184, 2-[(3-benzo[1,3]dioxol-5-ylphenyl)(1-methylpiperidin-4-yloxy)methyl]-1H-benzimidazole]
< 0.3 | 75 | CC(C)Oc1cccc(C(NC2CCN(C)CC2)c2nc3ccccc3[nH]2)c1 (centres unmarked) [Example 77, [(1H-benzimidazol-2-yl)(3-isopropoxyphenyl)methyl](1-methylpiperidin-4-yl)amine]
< 0.3 | 92 | COc1ccc(-c2cccc(C(OC3CCN(C)CC3)c3nc4ccccc4[nH]3)c2)cc1 (centres unmarked) [Example 183, 2-[(4′-methoxybiphenyl-3-yl)(1-methylpiperidin-4-yloxy)methyl]-1H-benzimidazole]
< 0.03 | 213 | CCOc1ccc(O)c(C(OC2CCN(C)CC2)c2nc3ccccc3[nH]2)c1 (centres unmarked) [Example 576]
< 0.3 | 254 | CN1CCC(NC(c2cccc([N+](=O)[O-])c2)c2nc3ccccc3[nH]2)CC1 (centres unmarked) [Example 131, [(1H-benzimidazol-2-yl)(3-nitrophenyl)methyl](1-methylpiperidin-4-yl)amine]
< 0.3 | 143 | CN1CCC(OC(c2ccccc2)c2nc3cc(Br)ccc3[nH]2)CC1 (centres unmarked) [Example 170, 5-bromo-2-[(1-methylpiperidin-4-yloxy)phenylmethyl]-1H-benzimidazole]
< 0.03 | 127 | CN1CCC(OC(c2nc3ccccc3[nH]2)c2cc(SCCF)ccc2O)CC1 (centres unmarked) [Example 614]
< 0.03 | 116 | CCSc1ccc(O)c(C(OC2CCN(C)CC2)c2nc3ccccc3[nH]2)c1 (centres unmarked) [Example 588]

Ki or IC50 activity class [1] [µM] | melting point [°C] | SMILES
< 0.3 | 92 | Cc1ccc(C(OC2CCN(C)CC2)c2nc3ccccc3[nH]2)cc1F (centres unmarked) [Example 554]
< 0.3 | 73 | CC(C)CCCOc1cccc(C(NC2CCN(C)CC2)c2nc3ccccc3[nH]2)c1 (centres unmarked) [Example 146, {(1H-benzimidazol-2-yl)[3-(4-methylpentyloxy)phenyl]methyl}(1-methylpiperidin-4-yl)amine]
< 0.3 | 53 | CN1CCC(OC(c2cccc(N=[N+]=[N-])c2)c2nc3ccccc3[nH]2)CC1 (centres unmarked) [Example 231, 2-[(3-azidophenyl)(1-methylpiperidin-4-yloxy)methyl]-1H-benzimidazole]
< 0.03 | 95 | CN1CCC(OC(c2nc3ccccc3[nH]2)c2cc(OC(F)(F)F)ccc2F)CC1 (centres unmarked) [Example 433, 2-[(2-fluoro-5-trifluoromethoxyphenyl)(1-methylpiperidin-4-yloxy)methyl]-1H-benzimidazole]
< 0.3 | 114 | CN1CCC(OC(c2nc3ccccc3[nH]2)c2cc(OCCCF)ccc2O)CC1 (centres unmarked) [Example 606]
< 0.3 | 161 | CN1CCC(OC(c2cccc(SCCNc3c(N)c(=O)c3=O)c2)c2nc3ccccc3[nH]2)CC1 (centres unmarked) [Example 385, 3-amino-4-(2-{3-[(1H-benzimidazol-2-yl)(1-methylpiperidin-4-yloxy)methyl]phenylsulfanyl}ethylamino)-cyclobut-3-ene-1,2-dione]
< 0.3 | 87 | CCOC(=O)NCCCC#Cc1ccc(F)c(C(OC2CCN(C)CC2)c2nc3ccccc3[nH]2)c1 (centres unmarked) [Example 560]
< 0.3 | 79 | CN1CCC(OC(c2nc3cc(F)c(F)cc3[nH]2)c2cc(OC(F)(F)F)ccc2F)CC1 (centres unmarked) [Example 511]
< 0.3 | 164 | CN1CCC(OC(c2cccc(SCCC3CCCCN3)c2)c2nc3ccccc3[nH]2)CC1 (centres unmarked) [Example 395, 2-{(1-methylpiperidin-4-yloxy)[3-(2-piperidin-2-yl-ethylsulfanyl)phenyl]methyl}-1H-benzimidazole]
< 1 | 53 | CN1CCC(OC(c2ccccc2)c2nc3ccccc3[nH]2)C1 (centres unmarked) [Example 272, 2-[(1-methylpyrrolidin-3-yloxy)phenyl-methyl]-1H-benzimidazole]
< 0.3 | 95 | CN1CCC(OC(c2cccc(-c3ccc(C(F)(F)F)cc3)c2)c2nc3ccccc3[nH]2)CC1 (centres unmarked) [Example 119, 2-[(1-methylpiperidin-4-yloxy)(4′-trifluoromethylbiphenyl-3-yl)methyl]-1H-benzimidazole]
< 0.03 | 85 | CN1CCC(OC(c2cccc(Br)c2)c2nc3ccccc3[nH]2)CC1 (single isomer, unassigned) [Example 564, 2-[(3-bromophenyl)(1-methylpiperidin-4-yloxy)methyl]-1H-benzimidazole]
< 1 | 97 | CN1CCC(NC(c2cccc(OC3CCCCO3)c2)c2nc3ccccc3[nH]2)CC1 (centres unmarked) [Example 120, {(1H-benzimidazol-2-yl)[3-(tetrahydropyran-2-yloxy)phenyl]methyl}(1-methylpiperidin-4-yl)amine]
< 0.03 | 129 | CN1CCC(OC(c2nc3ccccc3[nH]2)c2c(O)cccc2F)CC1 (centres unmarked) [Example 582]
< 0.03 | 145 | CN1CCC(OC(c2nc3ccccc3[nH]2)c2c(O)cccc2Cl)CC1 (centres unmarked) [Example 594]
< 1 | 111 | Cc1cc(F)cc(C(OC2CCN(C)CC2)c2nc3ccccc3[nH]2)c1O (centres unmarked) [Example 607]
< 1 | 193 | CN1CCC(OC(c2nc3ccccc3[nH]2)c2ccccc2OC(F)(F)F)CC1 (centres unmarked) [Example 251, 2-[(1-methylpiperidin-4-yloxy)(2-trifluoromethoxy-phenyl)methyl]-1H-benzimidazole]
< 0.3 | 140 | CN1CCC(OC(c2nc3ccccc3[nH]2)c2cc(F)ccc2F)CC1 (centres unmarked) [Example 424, 2-[(2,5-difluorophenyl)(1-methylpiperidin-4-yloxy)methyl]-1H-benzimidazole]
< 0.03 | 82 | CN1CCC(OC(c2cccc(C#CCCCN)c2)c2nc3ccccc3[nH]2)CC1 (single isomer, unassigned) [Example 566, 5-{3-[(1H-benzimidazol-2-yl)(1-methylpiperidin-4-yloxy)methyl]phenyl}pent-4-ynylamine]

SMILES | Ki or IC50 activity class [1] [µM] | melting point [°C]
CN1CCC(OC(c2cccc(C#CCCNC(=N)NC(=O)OC(C)(C)C)c2)c2nc3ccccc3s2)CC1 (centres unmarked) [Example 399, N-tert-butoxycarbonyl-N′-(4-{3-[(benzothiazol-2-yl)(1-methylpiperidin-4-yloxy)methyl]phenyl}but-3-ynyl)guanidine] | < 0.3 | 120

Reference: US8802664B2 (Bioproject, priority 2010, dated 2014)
